Measured values: PubChem BioAssay AID248 (DTP/NCI, 2004)
Where “and” joins values, the source holds several entries; their conditions need not be identical. Identical values can stand only once. Toxic doses and inconclusive results are not listed.

Tested on: L1210 leukemia ip in BDF1 mice, survival T/C
Assay: NCI In Vivo Anticancer Drug Screen. Data for tumor model L1210 Leukemia (intraperitoneal) in B6D2F1 (BDF1) mice
Conditions: endpoint: mean survival time, higher = longer survival
Procedure, shortened: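 Read-out is survival time, reported as the treated-group measurement over the vehicle-control measurement.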

[1] = dose: 100.0 mg/kg/injection, schedule: Q01DX009 (ip), vehicle: Klucel (hydroxypropylcellulose) (HPC)
[2] = dose: 200.0 mg/kg/injection, schedule: Q01DX009 (ip), vehicle: Klucel (hydroxypropylcellulose) (HPC)
[3] = dose: 200.0 mg/kg/injection, schedule: Q04DX002 (ip), vehicle: Klucel (hydroxypropylcellulose) (HPC)
[4] = dose: 100.0 mg/kg/injection, schedule: Q04DX003 (ip), vehicle: saline with Tween-80
[5] = dose: 200.0 mg/kg/injection, schedule: Q04DX003 (ip), vehicle: saline with Tween-80
[6] = dose: 400.0 mg/kg/injection, schedule: Q04DX003 (ip), vehicle: saline with Tween-80
[7] = dose: 100.0 mg/kg/injection, schedule: Q04DX003 (ip), vehicle: saline
[8] = dose: 200.0 mg/kg/injection, schedule: Q04DX003 (ip), vehicle: saline
[9] = dose: 400.0 mg/kg/injection, schedule: Q04DX003 (ip), vehicle: saline
[10] = dose: 50.0 mg/kg/injection, schedule: Q01DX009 (ip), vehicle: Klucel (hydroxypropylcellulose) (HPC)

## Cn1nc(Br)c(=O)n(C(c2ccccc2)c2ccccc2)c1=O
dose: 22.0 mg/kg/injection, schedule: Q01DX015 (ip), vehicle: other
  T/C: 110 % of control
dose: 33.0 mg/kg/injection, schedule: Q01DX015 (ip), vehicle: other
  T/C: 103 % of control
dose: 44.0 mg/kg/injection, schedule: Q01DX001 (ip), vehicle: other
  T/C: 100 % of control
dose: 50.0 mg/kg/injection, schedule: Q01DX015 (ip), vehicle: other
  T/C: 103 % of control
dose: 66.0 mg/kg/injection, schedule: Q01DX001 (ip), vehicle: other
  T/C: 102 % of control and 108 % of control
dose: 75.0 mg/kg/injection, schedule: Q01DX015 (ip), vehicle: other
  T/C: 106 % of control
dose: 150.0 mg/kg/injection, schedule: Q01DX001 (ip), vehicle: other
  T/C: 100 % of control and 104 % of control
dose: 200.0 mg/kg/injection, schedule: Q01DX001 (ip), vehicle: other
  T/C: 154 % of control
dose: 400.0 mg/kg/injection, schedule: Q01DX001 (ip), vehicle: other
  T/C: 154 % of control

## Cc1ccc(-n2c(N)cc(=O)[nH]c2=S)nc1
dose: 100.0 mg/kg/injection, schedule: Q04DX002 (ip), vehicle: saline
  T/C: 96 % of control
dose: 200.0 mg/kg/injection, schedule: Q04DX002 (ip), vehicle: saline
  T/C: 100 % of control
dose: 400.0 mg/kg/injection, schedule: Q04DX002 (ip), vehicle: saline
  T/C: 107 % of control

## O=C(Nc1ccccn1)NC1CCCCC1
[1]
  T/C: 98 % of control
[2]
  T/C: 105 % of control
dose: 400.0 mg/kg/injection, schedule: Q01DX009 (ip), vehicle: Klucel (hydroxypropylcellulose) (HPC)
  T/C: 98 % of control

## CC1(C)C2CCC1(CBr)C(=O)C2 (configuration not stated)
[3]
  T/C: 100 % of control

## c1ccc2c(c1)Cc1c(-c3ccncc3)n[nH]c1-2
[4]
  T/C: 93 % of control
[5]
  T/C: 96 % of control
[6]
  T/C: 86 % of control

## Cc1c(NCO)c(=O)n(-c2ccccc2)n1C
[7]
  T/C: 118 % of control
[8]
  T/C: 94 % of control
[9]
  T/C: 112 % of control

## O=[N+]([O-])c1ccc(OCCOCCOc2ccc(S(=O)(=O)F)cc2)c(Cl)c1
dose: 100.0 mg/kg/injection, schedule: Q01DX001 (ip), vehicle: saline with Tween-80
  T/C: 89 % of control
dose: 200.0 mg/kg/injection, schedule: Q01DX001 (ip), vehicle: saline with Tween-80
  T/C: 97 % of control
dose: 400.0 mg/kg/injection, schedule: Q01DX001 (ip), vehicle: saline with Tween-80
  T/C: 103 % of control

## CCOC(=O)c1ccc(NC(=O)CCl)cc1
dose: 25.0 mg/kg/injection, schedule: Q01DX015 (ip), vehicle: saline
  T/C: 98 % of control
dose: 50.0 mg/kg/injection, schedule: Q01DX001 (ip), vehicle: saline
  T/C: 106 % of control
dose: 50.0 mg/kg/injection, schedule: Q01DX015 (ip), vehicle: saline
  T/C: 100 % of control
dose: 100.0 mg/kg/injection, schedule: Q01DX001 (ip), vehicle: saline
  T/C: 104 % of control
dose: 100.0 mg/kg/injection, schedule: Q01DX015 (ip), vehicle: saline
  T/C: 98 % of control
dose: 200.0 mg/kg/injection, schedule: Q01DX001 (ip), vehicle: saline
  T/C: 101 % of control
dose: 400.0 mg/kg/injection, schedule: Q01DX001 (ip), vehicle: saline
  T/C: 97 % of control

## O=c1[nH][nH]c2c1cnc1ccccc12
[10]
  T/C: 97 % of control
[1]
  T/C: 101 % of control
[2]
  T/C: 94 % of control

## COc1ccc(S(=O)(=O)NC(=O)NC23CC4CC(CC(C4)C2)C3)cc1
[10]
  T/C: 91 % of control
[1]
  T/C: 98 % of control
dose: 100.0 mg/kg/injection, schedule: Q04DX003 (ip), vehicle: Klucel (hydroxypropylcellulose) (HPC)
  T/C: 97 % of control
dose: 200.0 mg/kg/injection, schedule: Q04DX003 (ip), vehicle: Klucel (hydroxypropylcellulose) (HPC)
  T/C: 97 % of control
dose: 400.0 mg/kg/injection, schedule: Q04DX003 (ip), vehicle: Klucel (hydroxypropylcellulose) (HPC)
  T/C: 94 % of control

## CC1(C)OC2COC(OCc3ccccc3)C(OCc3ccccc3)C2O1 (configuration not stated)
[4]
  T/C: 97 % of control
[5]
  T/C: 103 % of control
[6]
  T/C: 97 % of control

## Cc1ccc(N=C=C(c2ccc(Cl)cc2)c2ccc(Cl)cc2)cc1
dose: 1.56 mg/kg/injection, schedule: Q01DX009 (ip), vehicle: DMSO
  T/C: 104 % of control
dose: 3.12 mg/kg/injection, schedule: Q01DX009 (ip), vehicle: DMSO
  T/C: 93 % of control
dose: 6.25 mg/kg/injection, schedule: Q01DX009 (ip), vehicle: DMSO
  T/C: 97 % of control and 103 % of control
dose: 12.5 mg/kg/injection, schedule: Q04DX002 (ip), vehicle: DMSO
  T/C: 105 % of control
dose: 25.0 mg/kg/injection, schedule: Q04DX002 (ip), vehicle: DMSO
  T/C: 109 % of control

## Fc1ccc(NC(=S)Nc2ccccc2)cc1
dose: 100.0 mg/kg/injection, schedule: Q04DX002 (ip), vehicle: Klucel (hydroxypropylcellulose) (HPC)
  T/C: 108 % of control
[3]
  T/C: 116 % of control
dose: 400.0 mg/kg/injection, schedule: Q04DX002 (ip), vehicle: Klucel (hydroxypropylcellulose) (HPC)
  T/C: 97 % of control

## C=C(Cl)CN(CCCC(=O)O)c1ccccc1
dose: 100.0 mg/kg/injection, schedule: Q01DX009 (ip), vehicle: other
  T/C: 108 % of control
dose: 100.0 mg/kg/injection, schedule: Q04DX003 (ip), vehicle: other
  T/C: 98 % of control
dose: 200.0 mg/kg/injection, schedule: Q01DX009 (ip), vehicle: other
  T/C: 107 % of control
dose: 200.0 mg/kg/injection, schedule: Q04DX003 (ip), vehicle: other
  T/C: 106 % of control
dose: 400.0 mg/kg/injection, schedule: Q01DX009 (ip), vehicle: other
  T/C: 102 % of control
dose: 400.0 mg/kg/injection, schedule: Q04DX003 (ip), vehicle: other
  T/C: 108 % of control

## O=C(CSc1cc(Cl)c(Cl)cc1Cl)Nc1cccc(Br)c1
dose: 50.0 mg/kg/injection, schedule: Q04DX003 (ip), vehicle: saline with Tween-80
  T/C: 94 % of control
[4]
  T/C: 87 % of control
[5]
  T/C: 96 % of control

## [N-]=[N+]=C1C(=O)NC(=O)N2C3CC(O)C(COC12)O3 (configuration not stated)
dose: 32.0 mg/kg/injection, schedule: Q01DX Z (oral), vehicle: saline
  T/C: 110 % of control
dose: 63.0 mg/kg/injection, schedule: Q01DX Z (oral), vehicle: saline
  T/C: 105 % of control
dose: 100.0 mg/kg/injection, schedule: Q01DX009 (ip), vehicle: saline
  T/C: 111 % of control
[7]
  T/C: 102 % of control
dose: 125.0 mg/kg/injection, schedule: Q01DX Z (oral), vehicle: saline
  T/C: 101 % of control
dose: 133.0 mg/kg/injection, schedule: Q01DX006 (iv), vehicle: saline
  T/C: 106 % of control
dose: 133.0 mg/kg/injection, schedule: Q01DX Z (ip), vehicle: carboxymethylcellulose (CMC)
  T/C: 104 % of control
dose: 133.0 mg/kg/injection, schedule: Q01DX Z (ip), vehicle: saline
  T/C: 113 % of control and 119 % of control
dose: 200.0 mg/kg/injection, schedule: Q01DX006 (iv), vehicle: saline
  T/C: 110 % of control
dose: 200.0 mg/kg/injection, schedule: Q01DX009 (ip), vehicle: saline
  T/C: 114 % of control
dose: 200.0 mg/kg/injection, schedule: Q01DX Z (ip), vehicle: carboxymethylcellulose (CMC)
  T/C: 105 % of control
dose: 200.0 mg/kg/injection, schedule: Q01DX Z (ip), vehicle: saline
  T/C: 117 % of control
[8]
  T/C: 107 % of control
dose: 250.0 mg/kg/injection, schedule: Q01DX Z (oral), vehicle: carboxymethylcellulose (CMC)
  T/C: 108 % of control
dose: 250.0 mg/kg/injection, schedule: Q01DX Z (oral), vehicle: saline
  T/C: 105 % of control and 107 % of control
dose: 300.0 mg/kg/injection, schedule: Q01DX006 (iv), vehicle: saline
  T/C: 118 % of control
dose: 300.0 mg/kg/injection, schedule: Q01DX Z (ip), vehicle: saline
  T/C: 150 % of control
[9]
  T/C: 107 % of control
dose: 450.0 mg/kg/injection, schedule: Q01DX006 (iv), vehicle: saline
  T/C: 116 % of control
dose: 500.0 mg/kg/injection, schedule: Q01DX Z (oral), vehicle: carboxymethylcellulose (CMC)
  T/C: 98 % of control
dose: 500.0 mg/kg/injection, schedule: Q01DX Z (oral), vehicle: saline
  T/C: 107 % of control and 117 % of control
dose: 675.0 mg/kg/injection, schedule: Q01DX006 (iv), vehicle: saline
  T/C: 112 % of control
dose: 675.0 mg/kg/injection, schedule: Q01DX Z (ip), vehicle: saline
  T/C: 111 % of control
dose: 800.0 mg/kg/injection, schedule: Q01DX006 (iv), vehicle: saline
  T/C: 102 % of control
dose: 1000.0 mg/kg/injection, schedule: Q01DX006 (iv), vehicle: saline
  T/C: 102 % of control
dose: 1000.0 mg/kg/injection, schedule: Q01DX Z (oral), vehicle: carboxymethylcellulose (CMC)
  T/C: 100 % of control
dose: 2000.0 mg/kg/injection, schedule: Q01DX Z (oral), vehicle: carboxymethylcellulose (CMC)
  T/C: 107 % of control
